Here are results for five compounds from patent publication US20080096897A1, “5-(1,1'Biphenyl)-4-Yl-5-(4-(4-Aminoacylphenyl)-Piperazin)-1-Yl-Pyrimidine-2,4,6,-Trione Derivatives, As Inhibitors Of Zinc Metallondopeptidases, Their Preparation And Use” (priority 2004, published 2008).

Structures are written as SMILES. pIC50: −log10 of the molar value. Where two headings read alike, the source gives them in different places.

The target in experiment [1] is recombinant human MMP14 (Homo sapiens, UniProt P50281). Description: MMP inhibition on isolated enzymes, fluorigenic peptide substrate. It is filed as biochemical. An excerpt:
(§1) The matrix metalloproteinase (MMP) inhibitory activity has been evaluated in a classical biochemical assay using fluorigenic peptide substrates. Briefly, a peptide bearing 1) a fluorescent group and 2) a quenching group bound to another amino acid of the peptide is submitted to the proteolytic action of an MMP. The cleavage of peptide bounds due to the MMP results in a dequenching of the fluorescent group. There is a direct relationship between the observed fluorescence and the activity of the enzyme. The MMP inhibiting activity of a given substance can then be assessed using this assay.
(§2) The compounds of the present invention have been assayed using this assay design with recombinant human MMP2, MMP14 and MMP16 and the peptide ZGly-Gly-ArgAMC, which is a well-known, commercially available substrate of MMPs.
(§3) The following IC50 values (inhibitor concentration required to inhibit 50% of the enzyme) have been obtained with the compounds prepared according to examples 2 to 5 and compared to a product of the state of the art, better known as Ro 28-2653. Ro 28-2653 is included in claim 1 of WO 01/25217.

Experiment [2] has as its target recombinant human MMP16 (Homo sapiens, UniProt P51512). The description is as above. It is filed as biochemical.
Source text: as §1, §2, §3

Experiment [3] concerns the target T1, recombinant human MMP2 (Homo sapiens, UniProt P08253).
T1 sequence (P08253 110-660): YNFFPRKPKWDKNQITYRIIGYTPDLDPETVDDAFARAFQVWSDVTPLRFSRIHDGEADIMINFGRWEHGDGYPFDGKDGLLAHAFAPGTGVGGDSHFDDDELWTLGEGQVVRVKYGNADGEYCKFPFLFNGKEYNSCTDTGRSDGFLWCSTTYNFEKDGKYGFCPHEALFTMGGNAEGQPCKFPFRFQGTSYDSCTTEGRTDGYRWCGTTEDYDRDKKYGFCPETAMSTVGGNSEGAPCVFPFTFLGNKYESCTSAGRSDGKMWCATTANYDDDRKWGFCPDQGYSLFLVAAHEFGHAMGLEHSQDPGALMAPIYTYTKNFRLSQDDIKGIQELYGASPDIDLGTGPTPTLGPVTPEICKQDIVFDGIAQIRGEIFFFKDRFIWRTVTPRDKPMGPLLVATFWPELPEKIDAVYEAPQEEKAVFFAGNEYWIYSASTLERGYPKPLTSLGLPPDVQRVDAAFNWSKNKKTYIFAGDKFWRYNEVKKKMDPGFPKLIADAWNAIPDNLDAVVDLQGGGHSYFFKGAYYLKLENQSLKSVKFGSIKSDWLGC
Described as above. The format is biochemical.
Source text: as §1, §2, §3

In experiment [4] the test system is capillary vessel outgrowth from aorta rings. Description: aorta ring angiogenesis assay. The format is cell-based. Conditions: 10 μM in culture medium, rat aorta rings in collagen, 6-9 days. On the procedure:
Compound 5-(1,1′-biphenyl)-4-yl-5-{4-[4-(2,5-dioxopyrrolidin-1-yl)phenyl]piperazin-1-yl}pyrimidine-2,4,6(1H,3H,5H)-trione prepared according to example 4 has also been assayed in an aorta ring angiogenesis assay.
Briefly, in the aorta ring assay, fresh slices (ring) of aorta dissected from rat were embedded in collagen1 and then cultivated in Petri dishes after addition of culture medium (n=6). […] The effect of the compound of example 4 (10 μM) on angiogenesis was evaluated by its potency to stimulate or to inhibit the outgrowth of the capillary vessels when it was added to the culture medium (n=6).

Chain of recombinant human MMP16 (P51512 120-607): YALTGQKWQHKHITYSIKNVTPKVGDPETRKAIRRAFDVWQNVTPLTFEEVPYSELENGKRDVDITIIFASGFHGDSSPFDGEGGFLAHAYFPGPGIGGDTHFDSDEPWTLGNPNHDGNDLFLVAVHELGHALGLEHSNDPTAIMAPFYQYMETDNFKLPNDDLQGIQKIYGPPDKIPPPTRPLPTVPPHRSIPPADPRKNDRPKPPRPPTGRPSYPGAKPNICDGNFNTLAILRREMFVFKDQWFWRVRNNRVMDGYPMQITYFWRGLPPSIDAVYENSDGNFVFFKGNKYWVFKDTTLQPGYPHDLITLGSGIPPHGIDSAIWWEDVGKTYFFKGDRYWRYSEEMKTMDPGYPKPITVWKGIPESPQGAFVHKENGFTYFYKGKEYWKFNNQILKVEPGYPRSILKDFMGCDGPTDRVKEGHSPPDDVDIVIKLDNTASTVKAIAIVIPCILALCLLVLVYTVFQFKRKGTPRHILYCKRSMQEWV

For `O=C1NC(=O)C(c2ccc(-c3ccccc3)cc2)(N2CCN(c3ccc([N+](=O)[O-])cc3)CC2)C(=O)N1` [Ro 28-2653, reference compound], the pIC50 in experiment [1] was 7.02; in experiment [2], 7.04; in experiment [3], 6.61.

As to `O=C(O)CCC(=O)Nc1ccc(N2CCN(C3(c4ccc(-c5ccccc5)cc4)C(=O)NC(=O)NC3=O)CC2)cc1` [example 2, N-{4-[4-(5-(1,1′-Biphenyl)-4-yl-2,4,6-trioxoperhydropyrimidin-5-yl)piperazin-1-yl]-phenyl}succinamic acid], the pIC50 in experiment [1] was 7.54; in experiment [2], 7.41; in experiment [3], 6.96.

For the compound `O=C(O)CCCC(=O)Nc1ccc(N2CCN(C3(c4ccc(-c5ccccc5)cc4)C(=O)NC(=O)NC3=O)CC2)cc1` [example 3, 4-{4-[4-(5-(1,1′-Biphenyl)-4-yl-2,4,6-trioxoperhydropyrimidin-5-yl)piperazin-1-yl]-phenylcarbamoyl}butyric acid], the pIC50 was 7.59 in experiment [1], 7.31 in experiment [2] and 7.01 in experiment [3].

Regarding `O=C1NC(=O)C(c2ccc(-c3ccccc3)cc2)(N2CCN(c3ccc(N4C(=O)CCC4=O)cc3)CC2)C(=O)N1` [example 4, 5-(1,1′-Biphenyl)-4-yl-5-{4-[4-(2,5-dioxopyrrolidin-1-yl)phenyl]piperazin-1-yl}pyrimidine-2,4,6(1H,3H,5H)-trione], the figures for the pIC50 in experiment [1], in experiment [2] and in experiment [3] were 7.89, 7.68 and 7.12, respectively. The “effect on capillary vessel outgrowth (angiogenesis)” value in experiment [4] is on record as “severely inhibit the capillary vessel outgrowth”.

For `O=C1CCC(=O)N(c2ccc(N3CCN(C4(c5ccc(-c6ccccc6)cc5)C(=O)NC(=O)NC4=O)CC3)cc2)C1` [example 5, 5-(1,1′-Biphenyl)-4-yl-5-{4-[4-(2,5-dioxopiperidin-1-yl)phenyl]piperazin-1-yl}pyrimidine-2,4,6(1H,3H,5H)-trione], the IC50 came out at 23 nM in experiment [1] (recombinant human MMP14, substrate ZGly-Gly-ArgAMC, read-out: IC50 (nM) values on isolated enzymes MMP-14); 20 nM in experiment [2] (recombinant human MMP16, substrate ZGly-Gly-ArgAMC, read-out: IC50 (nM) values on isolated enzymes MMP-16); 93 nM in experiment [3] (recombinant human MMP2, substrate ZGly-Gly-ArgAMC, read-out: IC50 (nM) values on isolated enzymes MMP-2).
